Laboratory results reported in the Deep4Chem optical property database.
One block for each compound: values may come before it.

Test: solvent given as SMILES
[1] = in O=P(c1ccccc1)(c1ccccc1)c1ccccc1Oc1ccccc1P(=O)(c1ccccc1)c1ccccc1

Compound: COc1cc2cc(-c3ccc(C(=O)OCOC(C)=O)cc3C(=O)OCOC(C)=O)oc2cc1N1CCOCCOCCN(c2cc3oc(-c4ccc(C(=O)OCOC(C)=O)cc4C(=O)OCOC(C)=O)cc3cc2OC)CCOCCOCC1
- emission maximum (in O): 546 nm

Compound: COc1ccc(C2=[N+]3C(=Nc4c(-c5cc(OC)c(OC)c(OC)c5Br)c(-c5ccc(C(C)(C)C)cc5)c(-c5ccc(OC)cc5)n4[B-]3(F)F)C(c3cc(OC)c(OC)c(OC)c3Br)=C2c2ccc(C(C)(C)C)cc2)cc1
- emission maximum (in Cc1ccccc1): 740 nm

Compound: CC(C)(C)c1ccc(-c2cc(-c3ccc(-c4cc(-c5ccc(C(C)(C)C)cc5)c(C(=O)NCc5ccccc5)s4)s3)sc2C(=O)NCc2ccccc2)cc1
- emission maximum (in ClCCl): 449 nm

Compound: N#Cc1c(-n2c3ccccc3c3ccccc32)c(-n2c3ccccc3c3ccccc32)cc(-n2c3ccccc3c3ccccc32)c1-n1c2ccccc2c2ccccc21
- emission maximum (in CCCCCC): 439.08 nm
- emission maximum (in CCO): 468.52 nm
- emission maximum (in Cc1ccccc1): 442 nm
- emission maximum (in ClCCl): 456.64 nm

Compound: COC(=O)C1(C(=O)OC)Cc2c(C#Cc3ccc(OC)cc3)c(-c3ccc(OC)cc3)c3c(-c4ccccc4)c(-c4ccccc4)c(-c4ccccc4)c(-c4ccccc4)c3c2C1
- emission maximum (in C1CCOC1): 421.77 nm

Compound: CC(C)(C)c1ccc(-n2c(-c3ccc(-c4ccc(-c5c(-c6ccccc6)nc6ccccn56)cc4)cc3)nc3c4ccccc4c4ccccc4c32)cc1
- emission maximum (in ClCCl): 426 nm

Compound: O=C1c2cc(-n3c4ccccc4c4ccccc43)ccc2S(=O)(=O)c2ccc(-n3c4ccccc4c4ccccc43)cc21
- emission maximum (in C1CCOC1): 592 nm
- emission maximum (in CCCCCC): 484 nm
- emission maximum (in Cc1ccccc1): 546 nm
- emission maximum (in ClC(Cl)Cl): 606 nm
- emission maximum (in ClCCl): 614 nm

Compound: O=S(=O)(/N=c1\oc2cccc3c4c(-c5ccccc5)oc5cccc(c(c1-c1ccccc1)c23)c54)C(F)(F)F
- emission maximum (in CCCCCC): 535 nm
- emission maximum (in CO): 582 nm
- emission maximum (in CS(C)=O): 596 nm
- emission maximum (in ClC(Cl)Cl): 558 nm
- emission maximum (in ClCCl): 569 nm
- emission maximum (in O): 601 nm

Compound: CN(C)c1ccc(C2=Nc3scc(-c4ccc([N+](=O)[O-])cc4)[n+]3[B-](F)(F)O2)cc1
- emission maximum (in C1CCOC1): 454 nm
- emission maximum (in CC#N): 453 nm
- emission maximum (in Cc1ccccc1): 447 nm
- emission maximum (in ClCCl): 454 nm

Compound: CC1(C)c2ccccc2N(c2ccc(-c3ncc(C#N)cn3)cc2)c2ccccc21
- emission maximum (in Cc1ccccc1): 543 nm
- emission maximum (in N#Cc1ccc2c(c1)c1ccccc1n2-c1cccc(-n2c3ccccc3c3ccccc32)c1): 541 nm

Compound: Cc1ccc(C2=C3C=CC(Nc4ccccc4)=[N+]3[B-](F)(F)n3c(Nc4ccccc4)ccc32)cc1
- emission maximum (in CO): 613 nm

Compound: Cc1ccc(-c2c3nc(c(-c4ccc(C)cc4)c4ccc([nH]4)c(-c4ccc(C)cc4)c4nc(c(-c5ccc(C)cc5)c5ccc2[nH]5)C=C4N2CCOCC2)C=C3)cc1
- emission maximum (in CS(C)=O): 666 nm

Compound: O=C1/C(=C2\Sc3ccc(S(=O)(=O)Nc4ccccc4)cc3C2=O)Sc2ccc(S(=O)(=O)Nc3ccccc3)cc21
- emission maximum (in C1COCCO1): 588 nm
- emission maximum (in CN(C)C=O): 604 nm
- emission maximum (in CO): 618 nm
- emission maximum (in CS(C)=O): 627 nm

Compound: c1cc2c3c(cccc3c1)NC(c1ccc3ccc4cccc5ccc1c3c45)N2
- emission maximum (in CC#N): 458 nm
- emission maximum (in CO): 450 nm
- emission maximum (in CS(C)=O): 420 nm
- emission maximum (in Cc1ccccc1): 502 nm

Compound: N#Cc1cc(C#N)cc(-n2c3ccccc3c3cc(-c4ccc5c(c4)c4ccccc4n5-c4cc(C#N)cc(C#N)c4)ccc32)c1
- emission maximum (in Cc1ccccc1): 470 nm
- emission maximum [1]: 470 nm

Compound: CCCCCCN1C(=O)c2cccc3c(-c4ccc(-c5cc(-c6ccc(C)cc6)nn5-c5ccccc5)s4)ccc(c23)C1=O
- emission maximum (in ClCCl): 519 nm

Compound: COc1cc(/C=C/c2ccccn2)c(OC)cc1C=O
- emission maximum (in C1CCOC1): 446 nm
- emission maximum (in CC#N): 458 nm
- emission maximum (in CN(C)C=O): 456 nm
- emission maximum (in Cc1ccccc1): 444 nm
- emission maximum (in ClCCl): 455 nm

Compound: c1ccc(-c2cc(-c3ccc4ccc5c(-c6ccnc(-c7ccccn7)c6)ccc6ccc3c4c65)ccn2)nc1
- emission maximum (in C1CCOC1): 408 nm
- emission maximum (in CC#N): 418.01 nm
- emission maximum (in CCC#N): 408 nm
- emission maximum (in CCCC#N): 408 nm
- emission maximum (in CCCCCC): 397.99 nm
- emission maximum (in CCCO): 429 nm
- emission maximum (in CCO): 430 nm
- emission maximum (in CO): 430 nm
- emission maximum (in Cc1ccccc1): 410.17 nm

Compound: C[Si]1(c2ccccc2)C(c2ccc3c(c2)c2ccccc2n3-c2ccccc2)=C(c2ccccc2)C(c2ccccc2)=C1c1ccc2c(c1)c1ccccc1n2-c1ccccc1
- emission maximum (in C1CCOC1): 526 nm

Compound: c1ccc(-c2nc(-c3ccccc3)nc(-c3cc(-n4c5ccccc5c5ncccc54)c(-n4c5ccccc5c5ccccc54)c(-n4c5ccccc5c5ncccc54)c3)n2)cc1
- emission maximum (in CC#N): 525.35 nm
- emission maximum (in CCCCCC): 446.05 nm
- emission maximum (in Cc1ccccc1): 464.88 nm
- emission maximum (in ClCCl): 502.79 nm
- emission maximum [1]: 455.49 nm

Compound: CCC1(CC)c2cc(N(C)C)ccc2-c2ccc(C(F)(F)F)cc21
- emission maximum (in C1CCCCC1): 360 nm
- emission maximum (in CC#N): 337 nm
- emission maximum (in CCO): 388 nm
- emission maximum (in CCOCC): 373 nm
- emission maximum (in CS(C)=O): 414 nm
- emission maximum (in ClCCl): 387 nm
- emission maximum (in c1ccccc1): 374 nm

Compound: CCCCCCCC(=O)Oc1ccc2c3cccc4c(OC(=O)CCCCCCC)ccc(c5cccc1c52)c43
- emission maximum (in C1CCOC1): 454.01 nm
- emission maximum (in Cc1ccccc1): 456.99 nm
- emission maximum (in ClC(Cl)(Cl)Cl): 456.99 nm
- emission maximum (in ClC(Cl)Cl): 456.01 nm
- emission maximum (in ClCCl): 455 nm
- emission maximum (in c1ccncc1): 459.02 nm

Compound: c1ccc2c(c1)Oc1ccccc1B2c1ccc(N2c3ccccc3Oc3ccccc32)cc1
- emission maximum (in Cc1ccccc1): 522 nm

Compound: CC1=CC(C)=[N+]2C1=C(c1ccc(I)cc1)c1c(C)cc(C)n1[B-]2(OCc1ccccc1)OCc1ccccc1
- emission maximum (in ClC(Cl)Cl): 521.92 nm

Compound: CCC1(CC)c2cc(Br)ccc2-c2c1c1c(c3c2C(CC)(CC)c2cc(-c4cccs4)ccc2-3)C(CC)(CC)c2cc(Br)ccc2-1
- emission maximum (in C1CCOC1): 371 nm

Compound: C(=C\c1ncc(-c2ccc(OCc3ccccc3)c(OCc3ccccc3)c2)o1)/c1cccc(N2CCN(c3ccccc3)CC2)c1
- emission maximum (in ClCCl): 500 nm

Compound: CCCC1=Cc2nc1ccc1[nH]c(cc1CCC)c1nc(c(O)cc3[nH]c2cc3CCC)C(CCC)=C1
- emission maximum (in Cc1ccccc1): 683 nm

Compound: Cc1cccc2[n+]1[B-](c1ccccc1)(c1ccccc1)c1cccc3c4c5c(cccc5c-2c13)[B-](c1ccccc1)(c1ccccc1)[n+]1c(C)cccc1-4
- emission maximum (in ClCCl): 611 nm

Compound: COc1ccc(C2=[N+]3C(=Nc4c5c6ccccc6c6ccc(C(C)(C)C)cc6c5c(-c5ccc(OC)cc5)n4[B-]3(F)F)c3c2c2cc(C(C)(C)C)ccc2c2ccccc32)cc1
- emission maximum (in Cc1ccccc1): 741 nm

Further lines, results first:

- emission maximum (in CS(C)=O): 438 nm
Compound: COc1cc2sc3nc(-c4ccccc4OC)sc3c2cc1OC

- emission maximum (in C1CCOC1): 463 nm
- emission maximum (in CC#N): 471 nm
- emission maximum (in CO): 473 nm
- emission maximum (in ClCCl): 467 nm
Compound: Clc1ccc(/C=C/c2ccc(-c3nc4c5cccnc5c5ncccc5c4[nH]3)cc2)cc1

- emission maximum (in CC#N): 394 nm
- emission maximum (in ClCCl): 390 nm
Compound: CC(=O)Nc1cccc2c1C#Cc1c(cccc1C(=O)N(C)C)OCCCO2

- emission maximum (in C1CCOC1): 349 nm
- emission maximum (in C1COCCO1): 348 nm
- emission maximum (in CC#N): 362 nm
- emission maximum (in CC(C)O): 362 nm
- emission maximum (in CCO): 364 nm
- emission maximum (in CO): 367 nm
- emission maximum (in CS(C)=O): 371 nm
- emission maximum (in O): 390 nm
- emission maximum (in OCC(F)(F)F): 374 nm
Compound: N#Cc1ccc2[nH]ccc2c1

- emission maximum (in CCO): 457 nm
Compound: Cc1c(COC(=O)c2ccccc2)n2c(OCC(=O)c3ccccc3)c(C)c(=O)n2c1=O

- emission maximum (in ClC(Cl)Cl): 431 nm
Compound: O=C1CC(c2ccccc2)c2c(c3ccccc3c3nc4ccccc4nc23)O1 (stereo not drawn)

- emission maximum (in C1COCCO1): 590 nm
- emission maximum (in CN(C)C=O): 607 nm
- emission maximum (in CO): 624 nm
- emission maximum (in CS(C)=O): 614 nm
- emission maximum (in c1ccccc1): 598 nm
Compound: O=C1/C(=C2\Sc3ccccc3C2=O)Sc2ccccc21

- emission maximum (in CC#N): 627 nm
Compound: Cc1ccc(S(=O)(=O)Nc2c(/C=C/c3ccccc3)sc(-c3ccc(N(C)C)cc3)c2-c2ccsc2)cc1

- emission maximum (in ClCCl): 574 nm
Compound: Clc1ccccc1N1c2c(sc3ccccc23)Sc2sc3ccccc3c21

- emission maximum (in CS(C)=O): 438 nm
Compound: N#CC1=C(N)n2c(=O)c3ccccc3c(=O)n2C1c1ccccc1 (stereo not drawn)

- emission maximum (in CO): 416 nm
Compound: N#Cc1c(-n2nnc3ccccc32)n([C@H]2C[C@H](O)[C@@H](CO)O2)c2ncnc(N)c12

- emission maximum (in C1COCCO1): 598 nm
Compound: CC(C)CN1C(=O)/C(=C/c2ccc(C#N)cc2)C=C1c1ccccc1

- emission maximum (in ClC(Cl)Cl): 501 nm
Compound: CCCCCCN1C(=O)c2cccc3cc(/N=C\c4ccc5c(c4)c4ccccc4n5CC)cc(c23)C1=O

- emission maximum (in ClC(Cl)Cl): 419 nm
Compound: CC(=O)OCCN1C(=O)c2cccc3c(Oc4ccccc4C)ccc(c23)C1=O

- emission maximum (in CCO): 431 nm
Compound: O=c1c2cc(F)c(O)cc2n(Cc2ccccc2)c2cc(O)c(F)cc12

- emission maximum (in CC#N): 561 nm
- emission maximum (in ClCCl): 573 nm
Compound: Cc1cc(O)c(C(=O)/C=C/c2ccc(N(C)C)cc2)c(=O)o1

- emission maximum (in C1CCOC1): 448 nm
Compound: Clc1cnc2nn3ccccc3c2n1

- emission maximum (in C1CCOC1): 357 nm
- emission maximum (in CS(C)=O): 389 nm
- emission maximum (in ClC(Cl)Cl): 410 nm
- emission maximum (in ClCCl): 347 nm
Compound: COc1ccc(-c2nc(-c3ccccc3O)c(-c3ccccc3O)n2-c2ccc(C)cc2)cc1

- emission maximum (in ClCCl): 430 nm
Compound: CC(=O)c1ccc(-c2cc3c(ccc4sccc43)s2)cc1

- emission maximum (in ClCCl): 498 nm
Compound: Cc1ccc(/N=C2\N=C(N)c3cccc4cccc2c34)cc1

- emission maximum (in O): 389 nm
Compound: Cc1cn(C)c(=O)nc1-n1cncn1

- emission maximum (in CC#N): 553 nm
Compound: N#CC(/N=C/c1ccccc1O)=C(C#N)/N=C/c1ccccc1O

- emission maximum (in ClC(Cl)Cl): 715 nm
- emission maximum (in ClCCl): 715 nm
Compound: COc1ccc(C2=[N+]3C(=Nc4c(-c5ccccc5)cc(-c5ccc(OC)cc5)n4[B-]3(F)F)C(c3ccccc3)=C2)cc1

- emission maximum (in CC#N): 582 nm
- emission maximum (in ClCCl): 571 nm
Compound: CCOC(=O)c1ccc2nc(/N=N/c3ccc(N(CC)CC)cc3)sc2c1

- emission maximum (in CCO): 441 nm
Compound: CCOC(=O)c1cc(C(=O)OCC)c2cc(OC)ccc2n1

- emission maximum (in CCO): 672 nm
- emission maximum (in O): 684 nm
Compound: CC[N+](CC)=c1ccc2nc3c(cc(NCCC(=O)NC(C)C(=O)OC)c4ccccc43)oc-2c1 (stereo not drawn)
